{
  "source": "paper PMC5325082",
  "about": "(Molecular Pharmacology, 2017)",
  "key": {"[1]": {"system": "Aplysia californica AChBP, CC mutant", "conditions": "does not abolish ACh binding; ref Hansen and Taylor, 2007; cited from earlier work"}, "[2]": {"molecular_target": "rat α9α10 nAChR (wild type) (Rattus norvegicus, UniProt P43144+Q9JLB5)", "sequence (P43144 26-479)": "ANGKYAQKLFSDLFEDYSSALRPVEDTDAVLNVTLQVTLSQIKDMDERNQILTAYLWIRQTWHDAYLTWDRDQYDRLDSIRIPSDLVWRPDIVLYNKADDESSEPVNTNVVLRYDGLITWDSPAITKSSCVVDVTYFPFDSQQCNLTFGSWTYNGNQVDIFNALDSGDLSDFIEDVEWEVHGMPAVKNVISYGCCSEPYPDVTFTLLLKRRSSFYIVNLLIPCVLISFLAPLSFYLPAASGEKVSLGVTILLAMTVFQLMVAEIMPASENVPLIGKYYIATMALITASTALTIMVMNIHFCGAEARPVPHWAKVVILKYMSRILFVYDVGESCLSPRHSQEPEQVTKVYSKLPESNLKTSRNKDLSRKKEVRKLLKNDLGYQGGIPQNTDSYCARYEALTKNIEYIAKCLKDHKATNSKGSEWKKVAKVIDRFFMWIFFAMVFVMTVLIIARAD", "sequence (Q9JLB5 25-447)": "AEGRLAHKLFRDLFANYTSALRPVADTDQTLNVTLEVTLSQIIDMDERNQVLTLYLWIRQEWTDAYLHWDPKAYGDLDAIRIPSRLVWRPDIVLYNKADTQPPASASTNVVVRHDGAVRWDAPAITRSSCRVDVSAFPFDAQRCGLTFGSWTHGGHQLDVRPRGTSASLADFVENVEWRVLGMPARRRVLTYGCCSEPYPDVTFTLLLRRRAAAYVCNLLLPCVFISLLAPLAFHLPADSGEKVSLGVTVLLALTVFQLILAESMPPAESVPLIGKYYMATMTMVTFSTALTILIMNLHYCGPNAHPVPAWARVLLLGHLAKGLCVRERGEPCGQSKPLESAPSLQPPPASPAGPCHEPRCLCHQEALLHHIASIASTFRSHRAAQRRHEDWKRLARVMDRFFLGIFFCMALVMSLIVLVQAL", "assay": "ACh-evoked currents, two-electrode voltage clamp in Xenopus laevis oocytes, wild-type receptor", "assay_type": "cell-based", "conditions": "−70 mV", "from_the_text": "(§1) cDNAs encoding Gallus gallus (chick) or Rattus norvegicus (rat) α9 and α10 nAChR subunits were subcloned into a modified pGEMHE vector for expression studies in Xenopus laevis oocytes. Capped cRNAs were in vitro transcribed from linearized plasmid DNA templates using RiboMAX Large Scale RNA Production System (Promega, Madison, WI). Mutant subunits were produced using Quick Change XL II kit (Stratagene, La Jolla, CA). Amino acid sequences of rat and chicken α9, α10, and Torpedo α1 subunits were aligned using ClustalW (EMBL-EBI, Wellcome Genome Campus, Hinxton, Cambridgeshire). Residues were numbered according to the corresponding Torpedo α1 subunit mature protein ([Karlin, 2002]).\nThe maintenance of Xenopus laevis and the preparation and cRNA injection of stage V and VI oocytes have been described in detail elsewhere ([Verbitsky et al., 2000]). Typically, oocytes were injected with 50 nl of RNase-free water containing 0.01–1.0 ng of cRNA (at a 1:1 molar ratio when pairwise combined) and maintained in Barth’s solution at 18°C. […] Data were analyzed using Clampfit from the pClamp 6.1 software (Molecular Devices, Sunnyvale, CA). […]\nConcentration-response curves were normalized to the maximal agonist response in each oocyte. […] Data were analyzed using Clampfit from the pClamp 6.1 software."}, "[3]": {"molecular_target": "rat α9CC/SSα10 receptor (Rattus norvegicus, UniProt P43144+Q9JLB5, C219S/C220S)", "sequence (P43144 26-479 C219S/C220S)": "as the sequence (P43144 26-479) above, with C194S, C195S counted along it", "sequence (Q9JLB5 25-447, stated change not applied)": "as the sequence (Q9JLB5 25-447) above", "assay": "ACh-evoked currents, two-electrode voltage clamp in Xenopus laevis oocytes", "assay_type": "cell-based", "from_the_text": "as §1\nThe maintenance of Xenopus laevis and the preparation and cRNA injection of stage V and VI oocytes have been described in detail elsewhere ([Verbitsky et al., 2000]). Typically, oocytes were injected with 50 nl of RNase-free water containing 0.01–1.0 ng of cRNA (at a 1:1 molar ratio when pairwise combined) and maintained in Barth’s solution at 18°C. Electrophysiological recordings were performed 2–6 days after cRNA injection under two-electrode voltage clamp with an Oocyte Clamp OC-725B or C amplifier (Warner Instruments Corp., Hamden, CT). Recordings were filtered at a corner frequency of 10 Hz using a 900BT Tunable Active Filter (Frequency Devices Inc., Ottawa, IL). Data acquisition was performed using a Patch Panel PP-50 LAB/1 interface (Warner Instruments Corp.) at a rate of 10 points per second. Both voltage and current electrodes were filled with 3 M KCl and had resistances of ∼1 MΩ. Data were analyzed using Clampfit from the pClamp 6.1 software (Molecular Devices, Sunnyvale, CA). During electrophysiological recordings, oocytes were continuously superfused (∼15 ml/min) with normal frog saline composed of: 115 mM NaCl, 2.5 mM KCl, 1.8 mM CaCl2, and 10 mM HEPES buffer, pH 7.2. […] Unless otherwise indicated, the membrane potential was clamped to −70 mV. To minimize activation of the endogenous Ca^2+ sensitive chloride current ([Elgoyhen et al., 2001]), all experiments were performed in oocytes incubated with the Ca^2+ chelator 1,2-bis(2-aminophenoxy)ethane-N,N,N′,N′-tetraacetic acid (acetoxymethyl ester) (100 µM) for 3 hours before electrophysiological recordings.\nConcentration-response curves were normalized to the maximal agonist response in each oocyte. The mean and S.E.M. values of the responses are represented. Agonist concentration-response curves were iteratively fitted, using Prism 5 software (GraphPad Software Inc., La Jolla, CA), with the equation: I/Imax = A^nH/(A^nH + EC50^nH), where I is the peak inward current evoked by the agonist at concentration A; Imax is the current evoked by the concentration of the agonist eliciting a maximal response; EC50 is the concentration of the agonist inducing a half-maximal current response; and nH is the Hill coefficient. Data were analyzed using Clampfit from the pClamp 6.1 software."}, "[4]": {"molecular_target": "T1, α9χα10χW55T (UniProt P23979+P43144+Q9JLB5, L231I/L232I/W81T)", "T1 construct": "containing the extracellular N-terminal domain of the α9 or α10 subunit fused to the transmembrane and intracellular domain of the mouse 5-HT3A subunit; mouse 5-HT3A subunit transmembrane and intracellular domain (fusion partner); expressed in transfected cells; host or cells: tsA201 (derived from human embryonic kidney 293), transient transfection; membrane preparations", "T1 sequence (P23979 whole entry, looked up, stated change not applied, the tested form may be a part)": "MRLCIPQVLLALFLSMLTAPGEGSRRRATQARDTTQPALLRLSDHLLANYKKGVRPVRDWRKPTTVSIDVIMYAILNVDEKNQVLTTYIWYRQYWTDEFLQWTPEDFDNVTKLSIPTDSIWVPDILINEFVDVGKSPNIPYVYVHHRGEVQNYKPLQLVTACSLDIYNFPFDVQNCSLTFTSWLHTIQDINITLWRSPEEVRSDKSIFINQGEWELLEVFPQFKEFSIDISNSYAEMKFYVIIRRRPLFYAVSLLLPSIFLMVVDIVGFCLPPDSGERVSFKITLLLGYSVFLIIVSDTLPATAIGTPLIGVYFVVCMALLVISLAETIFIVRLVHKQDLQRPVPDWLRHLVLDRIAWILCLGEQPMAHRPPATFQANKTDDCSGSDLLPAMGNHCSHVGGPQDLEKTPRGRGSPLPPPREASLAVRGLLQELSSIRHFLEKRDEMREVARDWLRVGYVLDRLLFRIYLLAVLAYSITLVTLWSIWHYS", "T1 sequence (P43144 whole entry, looked up, stated change not applied, the tested form may be a part)": "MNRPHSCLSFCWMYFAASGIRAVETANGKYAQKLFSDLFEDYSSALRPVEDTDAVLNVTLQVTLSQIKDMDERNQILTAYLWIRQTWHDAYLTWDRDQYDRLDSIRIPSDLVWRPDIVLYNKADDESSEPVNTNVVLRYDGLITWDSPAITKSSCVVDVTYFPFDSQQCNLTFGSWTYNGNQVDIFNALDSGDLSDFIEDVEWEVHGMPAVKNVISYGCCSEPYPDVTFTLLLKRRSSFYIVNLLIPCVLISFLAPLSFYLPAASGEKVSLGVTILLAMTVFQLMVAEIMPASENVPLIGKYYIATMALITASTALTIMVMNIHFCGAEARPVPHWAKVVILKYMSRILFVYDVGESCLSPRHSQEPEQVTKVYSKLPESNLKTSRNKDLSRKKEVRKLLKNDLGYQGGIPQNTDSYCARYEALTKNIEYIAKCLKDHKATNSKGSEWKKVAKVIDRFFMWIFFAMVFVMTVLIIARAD", "T1 sequence (Q9JLB5 whole entry, looked up, stated change not applied, the tested form may be a part)": "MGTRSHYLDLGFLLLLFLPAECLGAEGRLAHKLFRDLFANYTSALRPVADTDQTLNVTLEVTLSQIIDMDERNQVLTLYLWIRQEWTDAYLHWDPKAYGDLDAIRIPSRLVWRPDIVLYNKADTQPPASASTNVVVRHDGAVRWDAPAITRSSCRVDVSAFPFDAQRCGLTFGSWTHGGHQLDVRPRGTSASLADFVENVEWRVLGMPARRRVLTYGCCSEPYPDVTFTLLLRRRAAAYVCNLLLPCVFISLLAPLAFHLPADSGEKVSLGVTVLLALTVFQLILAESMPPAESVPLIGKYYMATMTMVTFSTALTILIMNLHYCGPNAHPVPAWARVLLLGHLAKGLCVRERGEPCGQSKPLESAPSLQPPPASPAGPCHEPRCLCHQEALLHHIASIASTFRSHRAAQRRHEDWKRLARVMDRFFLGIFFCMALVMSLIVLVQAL", "assay": "[3H]-α-BTX radioligand binding, membranes of transfected tsA201 cells", "parameters": "species or system rat", "conditions": "ACh 1 mM alone vs standard mixture of nonradioactive ligands", "protocol": "(§2) Chimeric subunit cDNAs containing the extracellular N-terminal domain of the α9 or α10 subunit fused to the transmembrane and intracellular domain of the mouse 5-HT3A subunit have been described previously ([Baker et al., 2004]). The mammalian cell line tsA201 (derived from the human embryonic kidney 293 cell line) was obtained from Dr. William Green (University of Chicago, Chicago). Cells were cultured in Dulbecco’s modified Eagle’s medium (Invitrogen, Paisley, United Kingdom) containing 2 mM L-GlutaMAX (Invitrogen) plus 10% heat-inactivated fetal calf serum (Sigma, Poole, United Kingdom) with penicillin (100 U/ml) and streptomycin (100 µg/ml) and were maintained in a humidified incubator containing 5% CO2 at 37°C. Cells were transiently transfected using Effectene transfection reagent (QIAGEN, Crawley, United Kingdom) according to the manufacturer’s instructions. In all cases, cells were transfected overnight and assayed for expression approximately 40–48 hours after transfection. To ensure that the levels of radioligand binding were not influenced by differences in the amount of subunit cDNA expressed, the amount of each subunit plasmid DNA and also the total amount of plasmid DNA were kept constant when subunits were expressed singly and in combination. This was achieved by the inclusion of empty plasmid expression vector when single subunits were transfected.\n(§3) Binding studies with [^3H]-α-bungarotoxin (α-BTX) in cell membrane preparations were performed essentially as described previously ([Lansdell and Millar, 2000]; [Harkness and Millar, 2002]). Membranes (typically, 10–100 µg of protein) were incubated with radioligand (final concentration 20 nM) for 150 minutes at 4°C in a total volume of 300 µl in the presence of protease inhibitors leupeptin (2 µg/ml) and pepstatin (1 µg/ml). Our standard protocol for determining nonspecific binding was the addition of 1 mM carbachol, 1 mM nicotine, and 10 µM methyllycaconitine to triplicate samples. […] In all cases the levels of specific binding were determined by subtracting the level of nonspecific binding from the total binding (both of which were determined in triplicate). The data were determined as means of three independent experiments, each performed in triplicate. Radioligand binding was assayed by filtration onto 0.5% polyethylenimine-presoaked Whatman GF/B filters (Sigma-Aldrich, Dorset, England) followed by rapid washing (typically, five washes, each of 4 ml) with ice-cold 10 mM phosphate buffer using a Brandel cell harvester, and radioactivity was determined by scintillation counting. […] Protein concentrations were determined using bovine serum albumin standards (Bio-Rad, Hercules, CA)."}, "[5]": {"molecular_target": "T2, α9χα10χ (α9 and α10 extracellular domains fused to 5-HT3A) (UniProt P23979+P43144+Q9JLB5, L231I/L232I)", "T2 construct": "the extracellular N-terminal domain of the α9 or α10 subunit; expressed in transfected cells; host or cells: tsA201 cells (HEK293-derived), membrane preparation", "T2 sequence (P23979 whole entry, looked up, the tested form may be a part)": "as the sequence (P23979 whole entry, looked up, stated change not applied, the tested form may be a part) above", "T2 sequence (P43144 whole entry, looked up, stated change not applied, the tested form may be a part)": "as the sequence (P43144 whole entry, looked up, stated change not applied, the tested form may be a part) above", "T2 sequence (Q9JLB5 whole entry, looked up, stated change not applied, the tested form may be a part)": "as the sequence (Q9JLB5 whole entry, looked up, stated change not applied, the tested form may be a part) above", "assay": "[3H]-α-BTX radioligand binding, membranes of transfected tsA201 cells", "parameters": "species or system rat", "conditions": "ACh 1 mM alone vs standard mixture of nonradioactive ligands", "protocol": "as §2, §3"}},
  "data": [
    {"smiles": "CC(=O)OCC[N+](C)(C)C", "note": "[ACh, acetylcholine]", "values": [
      {"measurement": "Decrease in affinity on mutation of the CC", "setting": "[1]", "value": 10, "unit": "fold"},
      {"measurement": "Imax (maximal evoked current)", "setting": "[2]", "value": "298 ± 48", "unit": "nA"},
      {"measurement": "Imax (maximal evoked current)", "setting": "[3]", "value": "402 ± 103", "unit": "nA"},
      {"measurement": "Displacement of bound [3H]-α-BTX by ACh", "setting": "[4]", "value": "displaced as efficiently with ACh alone as with our standard mixture of nonradioactive competing ligands"},
      {"measurement": "Displacement of bound [3H]-α-BTX by ACh", "setting": "[5]", "value": "displaced as efficiently with ACh alone as with our standard mixture of nonradioactive competing ligands"}
    ]}
  ]
}
